Data as given in patent US10670605B2, “Cysteine reactive probes and uses thereof” (The Scripps Research Institute, priority 2015, dated 2020).

Tests used:
Test in all cases: Competitive isoTOP-ABPP, cell lysates;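 on isoTOP-ABPP reactivity profile ratio, P63244 C182: Heavy/light ratio DMSO over fragment-treated so higher means more cysteine engagement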;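 on isoTOP-ABPP reactivity profile ratio, P68036 C86: Heavy/light ratio DMSO over fragment-treated so higher means more cysteine engagement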
Assay type in all cases: binding
ADA C75 (P00813) = target: T1, ADA C75 (P00813) (Homo sapiens, UniProt P00813)
T1 sequence (P00813 1-363): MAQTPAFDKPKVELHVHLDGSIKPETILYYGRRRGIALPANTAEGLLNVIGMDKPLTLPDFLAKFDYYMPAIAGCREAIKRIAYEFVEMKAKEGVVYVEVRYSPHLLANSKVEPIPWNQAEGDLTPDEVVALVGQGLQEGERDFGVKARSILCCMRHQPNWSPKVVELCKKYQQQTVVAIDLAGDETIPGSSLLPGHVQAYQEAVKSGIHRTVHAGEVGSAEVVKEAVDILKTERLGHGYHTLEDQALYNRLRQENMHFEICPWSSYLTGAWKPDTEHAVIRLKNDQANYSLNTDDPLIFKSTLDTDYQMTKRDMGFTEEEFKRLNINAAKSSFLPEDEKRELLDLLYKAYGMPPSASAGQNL

GNB2L1 C182 (P63244) = GNB2L1 C182 (P63244) (Homo sapiens, UniProt P63244); conditions: for isoTOP-ABPP ratio, P63244_C182 / R value (DMSO/fragment): 500 μM;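 on isoTOP-ABPP reactivity profile ratio, P63244 C182: Heavy/light ratio DMSO over fragment-treated so higher means more cysteine engagement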
PDE12 C108 (Q6L8Q7) = target: T2, PDE12 C108 (Q6L8Q7) (Homo sapiens, UniProt Q6L8Q7); conditions: for isoTOP-ABPP ratio, Q6L8Q7_C108 / R value (DMSO/fragment): 500 μM; for isoTOP-ABPP reactivity ratio, Q6L8Q7_C108 / isoTOP-ABPP reactivity profile ratio, Q6L8Q7_C108: 500 μm
T2 sequence (Q6L8Q7 43-609): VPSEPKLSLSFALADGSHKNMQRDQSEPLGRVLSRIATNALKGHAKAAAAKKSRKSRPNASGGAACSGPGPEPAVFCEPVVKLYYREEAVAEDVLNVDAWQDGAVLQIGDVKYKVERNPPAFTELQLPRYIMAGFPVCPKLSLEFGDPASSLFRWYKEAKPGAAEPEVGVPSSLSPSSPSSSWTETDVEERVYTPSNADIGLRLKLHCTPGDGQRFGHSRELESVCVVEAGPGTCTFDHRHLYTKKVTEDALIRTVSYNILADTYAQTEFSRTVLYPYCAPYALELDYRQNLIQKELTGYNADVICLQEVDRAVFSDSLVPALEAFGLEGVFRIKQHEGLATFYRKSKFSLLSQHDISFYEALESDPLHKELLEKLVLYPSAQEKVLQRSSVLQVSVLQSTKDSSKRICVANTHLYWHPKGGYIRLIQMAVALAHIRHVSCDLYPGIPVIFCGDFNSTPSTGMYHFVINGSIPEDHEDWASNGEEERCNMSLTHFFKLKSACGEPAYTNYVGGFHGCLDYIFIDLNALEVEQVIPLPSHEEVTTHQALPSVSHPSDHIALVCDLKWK

PDIA6 C55 (Q15084) = target: T3, PDIA6 C55 (Q15084) (Homo sapiens, UniProt Q15084); conditions: for isoTOP-ABPP ratio Q15084_C55 / R value (DMSO/fragment): 500 μM; for isoTOP-ABPP reactivity ratio, Q15084_C55 / isoTOP-ABPP reactivity profile ratio, Q15084_C55: 500 μm
T3 sequence (Q15084 20-440): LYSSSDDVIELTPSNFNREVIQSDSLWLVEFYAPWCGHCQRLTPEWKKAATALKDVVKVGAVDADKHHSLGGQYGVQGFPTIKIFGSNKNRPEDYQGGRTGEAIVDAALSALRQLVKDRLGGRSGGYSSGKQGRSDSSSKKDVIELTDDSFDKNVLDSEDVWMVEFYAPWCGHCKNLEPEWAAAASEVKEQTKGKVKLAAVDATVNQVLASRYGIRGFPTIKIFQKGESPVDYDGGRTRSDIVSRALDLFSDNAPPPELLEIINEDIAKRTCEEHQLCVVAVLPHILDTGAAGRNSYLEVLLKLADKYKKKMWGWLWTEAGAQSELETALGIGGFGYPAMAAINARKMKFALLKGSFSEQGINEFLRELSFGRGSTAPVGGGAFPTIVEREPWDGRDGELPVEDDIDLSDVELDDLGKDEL

SAMHD1 C522 (Q9Y3Z3) = SAMHD1 C522 (Q9Y3Z3) (Homo sapiens, UniProt Q9Y3Z3)
UBE2L3 C86 (P68036) = UBE2L3 C86 (P68036) (Homo sapiens, UniProt P68036); conditions: for isoTOP-ABPP ratio, P68036_C86 / R value (DMSO/fragment): 500 μM; for isoTOP-ABPP reactivity ratio, P68036_C86 / isoTOP-ABPP reactivity profile ratio, P68036_C86: 500 μm;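 on isoTOP-ABPP reactivity profile ratio, P68036 C86: Heavy/light ratio DMSO over fragment-treated so higher means more cysteine engagement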
XPO1 C528 (O14980) = XPO1 C528 (O14980) (Homo sapiens, UniProt O14980); conditions: for isoTOP-ABPP ratio O14980_C528 / R value (DMSO/fragment): 500 μM

SMILES: C=CC(=O)N(Cc1cccnc1)c1ccc(Oc2ccccc2)c(C(F)(F)F)c1 [compound 15]
- isoTOP-ABPP ratio (reactivity profile), P00813_C75 (ADA C75 (P00813); 500 μm in-vitro ramos): 1.1
- isoTOP-ABPP ratio (reactivity profile), P63244_C182 (GNB2L1 C182 (P63244); 500 μm in-vitro ramos): 1.3
- isoTOP-ABPP ratio, Q6L8Q7_C108 (PDE12 C108 (Q6L8Q7); invitro, 231): 1.1
- isoTOP-ABPP ratio Q15084_C55 (PDIA6 C55 (Q15084); invitro, 231): 0.8
- isoTOP-ABPP ratio (reactivity profile), Q15084_C55 (PDIA6 C55 (Q15084); 500 μm in-vitro ramos): 1.0
- isoTOP-ABPP ratio (reactivity profile), Q9Y3Z3_C522 (SAMHD1 C522 (Q9Y3Z3); 500 μm in-vitro ramos): 1.6
- isoTOP-ABPP ratio (reactivity profile), P68036_C86 (UBE2L3 C86 (P68036); 500 μm in-vitro ramos): 1.3
- isoTOP-ABPP ratio O14980_C528 (XPO1 C528 (O14980); invitro, 231): 0.8
- isoTOP-ABPP ratio (reactivity profile), O14980_C528 (XPO1 C528 (O14980); 500 μm in-vitro ramos): 1.0

SMILES: O=C(CCl)NCCc1c[nH]c2ccccc12 [compound 13]
- isoTOP-ABPP ratio, P00813_C75 (ADA C75 (P00813); 500 μM, invitro, ramos): 0.9
- isoTOP-ABPP ratio, P63244_C182 (GNB2L1 C182 (P63244); invitro, 231): 1.4
- isoTOP-ABPP ratio, P63244_C182 (GNB2L1 C182 (P63244); invitro, ramos): 0.8
- isoTOP-ABPP ratio, Q6L8Q7_C108 (PDE12 C108 (Q6L8Q7); invitro, ramos): 1.0
- isoTOP-ABPP ratio Q15084_C55 (PDIA6 C55 (Q15084); invitro, 231): 1.9
- isoTOP-ABPP ratio Q15084_C55 (PDIA6 C55 (Q15084); invitro, ramos): 1.1
- isoTOP-ABPP ratio, Q9Y3Z3_C522 (SAMHD1 C522 (Q9Y3Z3); 500 μM, invitro, 231): 0.8
- isoTOP-ABPP ratio, P68036_C86 (UBE2L3 C86 (P68036); invitro, 231): 1.1
- isoTOP-ABPP ratio, P68036_C86 (UBE2L3 C86 (P68036); invitro, ramos): 0.8
- isoTOP-ABPP ratio O14980_C528 (XPO1 C528 (O14980); invitro, ramos): 0.5

SMILES: Cc1ccc(C=C(C#N)C(=O)NCCN2CCOCC2)cc1 [compound 41]
- isoTOP-ABPP reactivity ratio, P00813_C75 (ADA C75 (P00813); 500 μm, in-vitro_ramos): 1.1
- isoTOP-ABPP reactivity ratio, P63244_C182 (GNB2L1 C182 (P63244); 500 μm, in-vitro_ramos): 4.7
- isoTOP-ABPP reactivity ratio, Q6L8Q7_C108 (PDE12 C108 (Q6L8Q7); in-vitro_ramos_231): 1.3
- isoTOP-ABPP reactivity ratio, Q15084_C55 (PDIA6 C55 (Q15084); in-vitro_ramos): 0.8
- isoTOP-ABPP reactivity ratio, Q15084_C55 (PDIA6 C55 (Q15084); in-vitro_ramos_231): 0.9
- isoTOP-ABPP reactivity ratio, Q9Y3Z3_C522 (SAMHD1 C522 (Q9Y3Z3); 500 μm, in-vitro_ramos_231): 0.9
- isoTOP-ABPP reactivity ratio, P68036_C86 (UBE2L3 C86 (P68036); in-vitro_ramos): 7.9
- isoTOP-ABPP reactivity ratio, P68036_C86 (UBE2L3 C86 (P68036); in-vitro_ramos_231): 9.8
- isoTOP-ABPP reactivity ratio, O14980_C528 (XPO1 C528 (O14980); 500 μm, in-vitro_ramos_231): 0.6

SMILES: O=C(CCl)Nc1cc(C(F)(F)F)cc(C(F)(F)F)c1 [compound 3]
- R value (DMSO/fragment) (ADA C75 (P00813); 500 μM, invitro, ramos): 1.5
- R value (DMSO/fragment) (GNB2L1 C182 (P63244); in vitro, MDA-MB-231): 20.0
- R value (DMSO/fragment) (GNB2L1 C182 (P63244); invitro, ramos): 4.7
- R value (DMSO/fragment) (PDE12 C108 (Q6L8Q7); in vitro, MDA-MB-231): 3.6
- R value (DMSO/fragment) (PDE12 C108 (Q6L8Q7); invitro, ramos): 1.8
- R value (DMSO/fragment) (PDIA6 C55 (Q15084); in vitro, MDA-MB-231): 17.9
- R value (DMSO/fragment) (PDIA6 C55 (Q15084); invitro, ramos): 14.9
- R value (DMSO/fragment) (SAMHD1 C522 (Q9Y3Z3); 500 μM, in vitro, MDA-MB-231): 2.6
- R value (DMSO/fragment) (UBE2L3 C86 (P68036); in vitro, MDA-MB-231): 1.2
- R value (DMSO/fragment) (UBE2L3 C86 (P68036); invitro, ramos): 3.0
- R value (DMSO/fragment) (XPO1 C528 (O14980); in vitro, MDA-MB-231): 20.0
- R value (DMSO/fragment) (XPO1 C528 (O14980); invitro, ramos): 20.0

SMILES: CC(C)(C)c1cc(NC(=O)CCl)on1 [compound 32]
- isoTOP-ABPP reactivity ratio, P00813_C75 (ADA C75 (P00813); 500 μm, in-vitro_ramos): 1.7
- isoTOP-ABPP reactivity ratio, P63244_C182 (GNB2L1 C182 (P63244); 500 μm, in-vitro_ramos_231): 1.9
- isoTOP-ABPP reactivity ratio, Q6L8Q7_C108 (PDE12 C108 (Q6L8Q7); in-vitro_ramos): 1.9
- isoTOP-ABPP reactivity ratio, Q6L8Q7_C108 (PDE12 C108 (Q6L8Q7); in-vitro_ramos_231): 2.5
- isoTOP-ABPP reactivity ratio, Q15084_C55 (PDIA6 C55 (Q15084); in-vitro_ramos): 20.0
- isoTOP-ABPP reactivity ratio, Q15084_C55 (PDIA6 C55 (Q15084); in-vitro_ramos_231): 20.0
- isoTOP-ABPP reactivity ratio, Q9Y3Z3_C522 (SAMHD1 C522 (Q9Y3Z3); 500 μm, in-vitro_ramos): 1.8
- isoTOP-ABPP reactivity ratio, P68036_C86 (UBE2L3 C86 (P68036); in-vitro_ramos): 0.9
- isoTOP-ABPP reactivity ratio, P68036_C86 (UBE2L3 C86 (P68036); in-vitro_ramos_231): 1.1
- isoTOP-ABPP reactivity ratio, O14980_C528 (XPO1 C528 (O14980); 500 μm, in-vitro_ramos): 1.2
- isoTOP-ABPP reactivity ratio, O14980_C528 (XPO1 C528 (O14980); 500 μm, in-vitro_ramos_231): 1.7

SMILES: O=C(CCl)Nc1ccc(-c2ccccc2)cc1 [compound 52]
- isoTOP-ABPP reactivity profile ratio, P00813_C75 (ADA C75 (P00813); 500 μm, in-vitro_ramos): 1.2
- isoTOP-ABPP reactivity profile ratio, P63244_C182 (GNB2L1 C182 (P63244); 500 μm, in-vitro_ramos_231): 1.0
- isoTOP-ABPP reactivity profile ratio, Q6L8Q7_C108 (PDE12 C108 (Q6L8Q7); in-vitro_ramos): 6.8
- isoTOP-ABPP reactivity profile ratio, Q6L8Q7_C108 (PDE12 C108 (Q6L8Q7); in-vitro_ramos_231): 1.4
- isoTOP-ABPP reactivity profile ratio, Q15084_C55 (PDIA6 C55 (Q15084); in-vitro_ramos): 1.8
- isoTOP-ABPP reactivity profile ratio, Q15084_C55 (PDIA6 C55 (Q15084); in-vitro_ramos_231): 1.1
- isoTOP-ABPP reactivity profile ratio, Q9Y3Z3_C522 (SAMHD1 C522 (Q9Y3Z3); 500 μm, in-vitro_ramos_231): 1.2
- isoTOP-ABPP reactivity profile ratio, P68036_C86 (UBE2L3 C86 (P68036); in-vitro_ramos): 1.3
- isoTOP-ABPP reactivity profile ratio, P68036_C86 (UBE2L3 C86 (P68036); in-vitro_ramos_231): 0.8
- isoTOP-ABPP reactivity profile ratio, O14980_C528 (XPO1 C528 (O14980); 500 μm, in-vitro_ramos_231): 1.3

SMILES: C=CC(=O)N(Cc1cccnc1)c1cc(C(F)(F)F)cc(C(F)(F)F)c1 [compound 31]
- isoTOP-ABPP reactivity ratio, P00813_C75 (ADA C75 (P00813); 500 μm, in-vitro_ramos): 0.8
- isoTOP-ABPP reactivity ratio, P63244_C182 (GNB2L1 C182 (P63244); 500 μm, in-vitro_ramos_231): 1.3
- isoTOP-ABPP reactivity ratio, Q6L8Q7_C108 (PDE12 C108 (Q6L8Q7); in-vitro_ramos_231): 2.0
- isoTOP-ABPP reactivity ratio, Q15084_C55 (PDIA6 C55 (Q15084); in-vitro_ramos): 1.1
- isoTOP-ABPP reactivity ratio, Q15084_C55 (PDIA6 C55 (Q15084); in-vitro_ramos_231): 1.2
- isoTOP-ABPP reactivity ratio, Q9Y3Z3_C522 (SAMHD1 C522 (Q9Y3Z3); 500 μm, in-vitro_ramos_231): 1.5
- isoTOP-ABPP reactivity ratio, P68036_C86 (UBE2L3 C86 (P68036); in-vitro_ramos): 1.3
- isoTOP-ABPP reactivity ratio, P68036_C86 (UBE2L3 C86 (P68036); in-vitro_ramos_231): 1.7
- isoTOP-ABPP reactivity ratio, O14980_C528 (XPO1 C528 (O14980); 500 μm, in-vitro_ramos): 3.2
- isoTOP-ABPP reactivity ratio, O14980_C528 (XPO1 C528 (O14980); 500 μm, in-vitro_ramos_231): 5.2
